# Source: US7091025B2, “Malathion carboxylesterase” (priority 1995, dated 2006)
# Where two headings read alike, the source gives them in different places.
# What was measured:
# [1] = test system: malathion carboxylesterase (MCE) purified from malathion resistant strains of L. cuprina; conditions: purified MCE (Whyard and Walker 1994); cited from earlier work
# CCCC(=O)Oc1cccc2ccccc12 = experiment: α-naphthyl butyrate hydrolysis, expressed malathion resistant LcαE7 product; assay type: biochemical, Lucilia cuprina; conditions: other: α-NB 6-200 μM, 25° C., pH 8.0
# Description: (§1) The malathion resistant Lcα7 full-length cDNA was cloned into the baculovirus transfer vector, Bacpac 6 (Clonetech) 3′ of the polyhedrin promoter. Transfections were conducted using a lipofection method with DOTAP (Boehringer Mannheim) as per King and Possee (The Baculovirus Expression System: A Laboratory Guide, Chapman & Hall, London, 1992). One μg of DNA of each of the resulting constructs together with 200 ng of Bacpac 6 baculovirus DNA (Clonetech), linearised by digestion with the restriction enzyme BSU 36I (Promega), was incubated in a solution of HBS (hepes buffered saline) containing 15% DOTAP (Boehringer Mannheim) in a polystyrene container at room temperature for 10 minutes. […]
# (§2) The initial rates of reactions between cell extracts containing the expressed products of the malathion resistant and susceptible LcαE7 alleles and α-naphthyl acetate (α-NA) were determined at 25° C. using a recording spectrophotometer and the method of Mastrapaolo and Yourno (Analytical Biochemistry 115: 188, 1981). 6–200 μM α-NA dissolved in 10 μl of 2-methoxyethanol was added to 0.1 M Tris-HCl pH 8.0 (980 μl) in a quartz cuvette. α-Naphthyl acetate is slowly hydrolysed in water so a background rate was recorded before starting the enzymic reaction by the addition of 10 μl of diluted cell extract. […]
# (§3) Km and Vmax were calculated for both enzymes. […]
# CC(=O)Oc1cccc2ccccc12 = experiment: α-naphthyl acetate hydrolysis, expressed malathion resistant LcαE7 product; assay type: biochemical, Lucilia cuprina; conditions: other: α-NA 6-200 μM, 25° C., pH 8.0
# Description: as §1, §2, §3
# [2] = test system: malathion carboxylesterase (MCE) purified from malathion resistant strains of L. cuprina; conditions: purified MCE (Whyard and Walker 1994); cited from earlier work; remark: listed apart in the source
# [3] = target: Lucilia cuprina LcαE7 (esterase E3) gene product, malathion resistant allele, Trp to Leu at position 251 (Lucilia cuprina, UniProt Q25252, W251L); experiment: chlorfenvinphos hydrolysis, expressed malathion resistant LcαE7 product; assay type: biochemical; conditions: 75 μM CVP
# Description: as §1, with “minutes. The solution was then used to transfect a single well of a six well tissue culture plate pre-seeded 2 hrs previously with 10^4 Sf9 (Spodoptera frugiperda) cells in 1.5 mls Grace's medium (King and Possee, The Baculovirus Expression System: A Laboratory Guide, Chapman & Hall, London, 1992). After 12 hours, the medium was replaced with 3 mls of Grace's medium containing 10% fetal calf serum. Construct plus DOTAP, linearised virus plus DOTAP and DOTAP only controls were conducted in parallel with transfections. The transfections were harvested 4–5 days after infection and the cells isolated by centrifugation at 500 g for 5 minutes.” for “minutes.”
# [4] = test system: Lucilia cuprina LcαE7 (esterase E3) gene product, OP-susceptible allele (LS2); conditions: described in PCT/AU 95/00016; cited from earlier work
# [5] = target: Lucilia cuprina LcαE7 (esterase E3) gene product, malathion susceptible allele (strain LS2; clone Lc743), Trp at position 251 (Lucilia cuprina, UniProt Q25252); experiment: malathion hydrolysis (MCE activity), expressed malathion susceptible LcαE7 product; assay type: biochemical; conditions: malathion 2.5-100 μM, 25° C., pH 7.0
# Chain of Lucilia cuprina LcαE7 (esterase E3) gene product, malathion susceptible allele (strain LS2; clone Lc743), Trp at position 251 (Q25252 entry or part of it): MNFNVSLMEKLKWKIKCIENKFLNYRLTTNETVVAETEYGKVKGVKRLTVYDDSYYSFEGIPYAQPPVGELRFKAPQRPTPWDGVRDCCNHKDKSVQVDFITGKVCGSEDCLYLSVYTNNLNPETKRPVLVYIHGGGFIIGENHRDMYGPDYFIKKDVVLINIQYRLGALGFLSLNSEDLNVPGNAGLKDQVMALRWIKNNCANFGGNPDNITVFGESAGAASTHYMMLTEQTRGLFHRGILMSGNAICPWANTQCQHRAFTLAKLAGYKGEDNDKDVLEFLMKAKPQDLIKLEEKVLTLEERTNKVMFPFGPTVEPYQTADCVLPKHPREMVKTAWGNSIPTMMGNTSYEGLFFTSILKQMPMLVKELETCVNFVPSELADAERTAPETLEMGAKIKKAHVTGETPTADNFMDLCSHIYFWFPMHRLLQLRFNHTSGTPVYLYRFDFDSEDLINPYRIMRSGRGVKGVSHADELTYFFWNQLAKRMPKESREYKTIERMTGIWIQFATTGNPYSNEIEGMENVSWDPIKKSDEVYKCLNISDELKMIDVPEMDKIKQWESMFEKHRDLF
# [6] = target: T1, Lucilia cuprina LcαE7 (esterase E3) gene product, malathion resistant allele (strain RM-8), Trp to Leu at position 251 (Lucilia cuprina, UniProt Q25252, W251L); experiment: malathion hydrolysis (MCE activity), expressed malathion resistant LcαE7 product; assay type: biochemical; conditions: malathion 2.5-100 μM, 25° C., pH 7.0
# [7] = test system: malathion carboxylesterase (MCE) purified from malathion resistant strains of L. cuprina; conditions: cited from earlier work
# [8] = test system: malathion resistant strains of M. domestica, C. putoria and L. cuprina; conditions: literature, cited from earlier work
# [9] = target: T1, Lucilia cuprina LcαE7 (esterase E3) gene product, malathion resistant allele (strain RM-8), Trp to Leu at position 251; experiment: sensitivity of MCE activity to TPP, expressed malathion resistant LcαE7 product; assay type: biochemical; conditions: TPP 8×10^−8M, preincubation 15, 30 or 45 minutes
# [10] = test system: MCE activity associated with malathion resistance in M. domestica, C. putoria and L. cuprina; conditions: literature; cited from earlier work
# [11] = test system: MCE encoded by the malathion resistant allele of LcαE7; experiment: Sensitivity of MCE activity to TPP (titration/preincubation of cell extract); assay type: biochemical, L. cuprina
# [12] = purified MCE (Whyard et al. 1994)
compound,measurement,setting,value
CC(=O)Oc1cccc2ccccc12 [α-naphthyl acetate],Kcat,[1],2063 per min
same,Km,[1],167 ± 14 µM
"Lucilia cuprina LcαE7 (esterase E3) gene product, malathion resistant allele (strain RM-8), Trp to Leu at position 251 (Lucilia cuprina; W251L)",Km,CCCC(=O)Oc1cccc2ccccc12,29 ± 4 µM
same,kcat,CCCC(=O)Oc1cccc2ccccc12,150 ± 6.67 s⁻¹
same,Km,CC(=O)Oc1cccc2ccccc12,150 ± 50 µM
same,kcat,CC(=O)Oc1cccc2ccccc12,37.8 ± 0.5 s⁻¹
CCCC(=O)Oc1cccc2ccccc12 [α-naphthyl butyrate],Kcat,[2],3700 per min
same,Km,[2],39 ± 4 µM
"CCOP(=O)(OCC)OC(=CCl)c1ccc(Cl)cc1Cl [CVP, chlorfenvinphos]","turnover, fold less than that of the diazinon resistant (RM2-6) gene product",[3],approximately 50 fold
same,turnover (hydrolytic activity),"[3]; 30° C., pH 7.0",about 1.2 hour^−1
same,CVP / diethyl OP hydrolytic activity,[4],undetectable
"CCOC(=O)CC(SP(=S)(OC)OC)C(=O)OCC (centres unmarked) [malathion, S-1,2-bis(ethoxycarbonyl)ethyl O,O-dimethyl phosphorodithioate]",Kcat,[5],1.17 ± 0.183 s⁻¹
same,Km,[5],200 ± 30 µM
same,Kcat,[6],0.717 ± 0.017 s⁻¹
same,Km,[6],21 ± 1 µM
same,Kcat,[7]; purified MCE (Whyard and Walker 1994),46±2 per min
same,Km,[7]; [12],11 ± 0.4 µM
same,Vmax,[7]; [12],775±28 nmol malathion/min/mg
same,kcat (turnover number),[7]; [12],0.767 s⁻¹
"O=P(Oc1ccccc1)(Oc1ccccc1)Oc1ccccc1 [TPP, triphenylphosphate]",synergism of malathion,[8]; listed as triphenylphosphate,best synergists
same,synergism of malathion,[8],potent synergism of malathion by TPP
same,residual MCE activity at different preincubation times / completeness of inhibition by TPP,[9],no significant difference between the residual MCE activity at each of the preincubation times
same,turnover of TPP by MCE,[9],TPP was not being turned over by MCE
same,sensitivity of MCE activity to inhibition by TPP,[10],High sensitivity to inhibition by TPP
same,turnover of TPP by MCE,"[11]; TPP 8×10^−8M preincubated 15, 30 or 45 minutes with cell extract",not being turned over
same,concentration giving stoichiometric inhibition of MCE activity,"[11]; expressed product of malathion resistant LcαE7 allele, substrate malathion",below 10^−7 M
